Key:
Format in all cases: in vivo, BALB/c mice
[1] = tested on: anti-OVA-specific IgG1 subclass antibody; assay: Adjuvant activity test: anti-OVA-specific IgG1 subclass antibody in serum of OVA-immunized mice (ELISA); settings: after secondary immunization, serum 2 weeks later; OVA 5 μg + compound 0.256 μmol in 5% αCD-added saline (Addavax mixed with saline at 1:1), dorsal-subcutaneous; compared to OVA single administration group
Description: (§1) 8-Week-old female BALB/c mice were divided into groups (N=6), and each group was primarily immunized by dorsal-subcutaneous administration of (1) ovalbumin (OVA) (5 μg) dissolved in saline as an antigen (OVA single administration group), (2) OVA 5 μg and Addavax™ (mixed with saline at 1:1) dissolved in saline (Addavax™ administration group) as positive control adjuvant, (3) OVA 5 μg and SZ137 0.256 μmol dissolved or dispersed in 5% α-cyclodextrin (hereinafter to be simply referred to as αCD)-added saline (SZ137 administration group), (4) OVA (5 μg) and SZ138 (0.256 μmol) dissolved or dispersed in 5% αCD-added saline (SZ138 administration group), (5) OVA (5 μg) and SZ142 (0.256 μmol) dissolved or dispersed in 5% αCD-added saline (SZ142 administration group), (6) OVA (5 μg) and SZ144 (0.256 μmol) dissolved or dispersed in 5% αCD-added saline (SZ144 administration group), (7) OVA (5 μg) and SZ145 (0.256 μmol) dissolved or dispersed in 5% αCD-added saline (SZ145 administration group), (8) OVA (5 μg) and SZ146 (0.256 μmol) dissolved or dispersed in 5% αCD-added saline (SZ146 administration group), (9) OVA (5 μg) and SZ147 (0.256 μmol) dissolved or dispersed in 5% αCD-added saline (SZ147 administration group), (10) OVA (5 μg) and SZ148 (0.256 μmol) dissolved or dispersed in 5% αCD-added saline (SZ148 administration group), each per mouse. Two week later, the secondary immunization was carried out by dorsal-subcutaneous administration of solutions or dispersions similar to those of the above-mentioned (1)-(10) again. Two weeks from the secondary immunization, the whole blood was extracted under anesthesia, and the obtained serum sample was measured for anti-OVA-specific IgG1 subclass antibody, anti-OVA-specific IgG2a subclass antibody, and anti-OVA-specific IgE antibody.
(§2) The measurement method of the anti-OVA-specific IgG1 subclass antibody and anti-OVA-specific IgG2a subclass antibody in Experimental Example 1 and the following Experimental Examples 2-10 is as follows.
(§3) To a 96 well plate was added 5 μg/ml OVA at 100 µl/well, and the mixture was incubated at 4° C. overnight. After incubation, the mixture was washed three times with 200 μl of PBS-T (PBS (phosphate buffered saline)+0.05% (v/v) Tween 20) per well, and blocked with 100 μl of 5% FCS (fetal calf serum)/PBS solution per well at room temperature for 1-2 hr. Thereafter, the mixture was washed three times with PBS-T (200 μl/well), a diluted serum sample (100 l/well) or the same amount of 5% FCS/PBS solution as a control was added, and the mixture was incubated at 37° C. for 1 hr. To calculate concentration of the antibody, the standard of an anti-OVA-specific IgG1 subclass antibody diluted with 2% FCS/PBS solution was added at 100 ng/ml, 50 ng/ml, 25 ng/ml, 12.5 ng/ml, 6.25 ng/ml, 3.125 ng/ml, 1.56 ng/ml, 0.781 ng/ml, 0.391 ng/ml, 0.195 ng/ml, 0.098 ng/ml, 0 ng/ml, per 1 well. When an anti-OVA-specific IgG2a subclass antibody was measured, the standard of an anti-OVA-specific IgG2a subclass antibody was added at 50 ng/ml, 25 ng/ml, 12.5 ng/ml, 6.25 ng/ml, 3.125 ng/ml, 1.56 ng/ml, 0.781 ng/ml, 0.391 ng/ml, 0.195 ng/ml, 0.098 ng/ml, 0.049 ng/ml, 0 ng/ml, per 1 well. Thereafter, similar to the samples, the mixture was washed five times with PBS-T (200 μl/well), a diluted biotinylated anti-mouse IgG1 antibody and IgG2a antibody were added (100 μl/well), and the mixture was incubated at 37° C. for 45 min. Thereafter, the mixture was washed five times with PBS-T (200 μl/well), a diluted anti-biotin-HRP antibody was added (100 μl/well), and the mixture was incubated at 37° C. for another 30 min. Thereafter, the mixture was washed five times with PBS-T (200 μl/well), TMB substrate solution was added (100 μl/well), and the mixture was incubated at room temperature for 10-15 min. Thereafter, a reaction quenching liquid (2N sulfuric acid solution) was added (50 l/well) to discontinue a color developing reaction, and the absorbance (OD Value=450 nm) was measured by a microplate reader. […]

[2] = tested on: anti-OVA-specific IgG2a subclass antibody; assay: Adjuvant activity test: anti-OVA-specific IgG2a subclass antibody in serum of OVA-immunized mice (ELISA); settings: after secondary immunization, serum 2 weeks later; OVA 5 μg + compound 0.256 μmol in 5% αCD-added saline (Addavax mixed with saline at 1:1), dorsal-subcutaneous; compared to OVA single administration group
Description: as §1, §2, §3

[3] = tested on: anti-OVA-specific IgG2a subclass antibody; assay: as above; settings: after primary immunization, serum 2 weeks later; OVA 5 μg + compound 0.256 μmol in 5% αCD-added saline (Addavax mixed with saline at 1:1), dorsal-subcutaneous; compared to OVA single administration group
[4] = tested on: anti-OVA-specific IgG1 subclass antibody; assay: Adjuvant activity test: anti-OVA-specific IgG1 subclass antibody in serum of OVA-immunized mice (ELISA); settings: after primary immunization, serum 2 weeks later; OVA 5 μg + compound 0.256 μmol in 5% αCD-added saline (Addavax mixed with saline at 1:1), dorsal-subcutaneous; compared to OVA single administration group

Compound	anti-OVA-specific IgG1 subclass antibody production [1]	anti-OVA-specific IgG2a subclass antibody production [2]	anti-OVA-specific IgG2a subclass antibody production [3]	anti-OVA-specific IgG1 subclass antibody production [4]
CCCCCCCCCCCCCCCCCCCCCC(=O)N[C@@H](C)C(=O)NCCCCCCCCCCCC [SZ145, N-[(1S)-2-(dodecylamino)-1-methyl-2-oxo-ethyl]docosanamide]	showed a tendency to increase	showed a tendency to increase	–	–
CCCCCCCCCCCCCCCCCCCCCC(=O)NC(C)(C)C(=O)NCCCCCCCCCCCC [SZ146, N-[2-(dodecylamino)-1,1-dimethyl-2-oxo-ethyl]docosanamide]	showed a tendency to increase	showed a tendency to increase	–	–
CCCCCCCCCCCCCCCCCCCCCC(=O)NCCC(=O)NCCCCCCCCCCCC [SZ147, N-[3-(dodecylamino)-3-oxo-propyl]docosanamide]	showed a tendency to increase	showed a tendency to increase	–	–
CCCCCCCCCCCCCCCCOC(=O)N[C@@H](CCCNC(=N)N)C(=O)NCCCCCCCCCCCC.Cl [SZ150, Hexadecyl N-[(1S)-1-(dodecylcarbamoyl)-4-guanidino-butyl]carbamate hydrochloride]	significantly increased	significantly increased	–	–
CCCCCCCCCCCCCCCCCCCCCC(=O)N[C@@H](CCCC)C(=O)NCCCCCCCCCCCC [SZ155, N-[(1S)-1-(dodecylcarbamoyl)pentyl]docosanamide]	showed a tendency to increase	showed a tendency to increase	–	–
CCCCCCCCCCCCCCCCCCCCCC(=O)N1CCC(C(=O)NCCCCCCCCCCCC)CC1 [SZ156, 1-docosanoyl-N-dodecyl-piperidine-4-carboxamide]	showed a tendency to increase	showed a tendency to increase	–	–
CCCCCCCCCCCCCCCCCCCCCC(=O)N[C@@H](CCCNC(=N)N)C(=O)N(CCCCCCC)CCCCCCC.Cl [SZ159, N-[(1S)-1-(diheptylcarbamoyl)-4-guanidino-butyl]docosanamide hydrochloride]	showed a tendency to increase	showed a tendency to increase	–	–
CCCCCCCCCCCCCCCCCCCCCC(=O)N[C@@H](CCCCN)C(=O)NCCCCCCCCCCCC.Cl [SZ160, N-[(1S)-5-amino-1-(dodecylcarbamoyl)pentyl]docosanamide hydrochloride]	showed a tendency to increase	showed a tendency to increase	–	–
CCCCCCCCCCCCCCCCOC(=O)N[C@@H](CCCNC(=N)N)C(=O)NCCCCCC.Cl [SZ169, Hexadecyl N-[(1S)-4-guanidino-1-(hexylcarbamoyl)butyl]carbamate hydrochloride]	tended to increase	tended to increase	–	–
CCCCCCCCCCCCCCCCCCCCCC(=O)N[C@@H](CCCCNC(=N)N)C(=O)NCCCCCC.Cl [SZ170, N-[(1S)-5-guanidino-1-(hexylcarbamoyl)pentyl]docosanamide hydrochloride]	tended to increase	tended to increase	–	–
CCCCCCCCCCCCCCCCCCCC(=O)N[C@@H](CCCNC(=N)N)C(=O)NCCCCCCCCCCCC.Cl [SZ180, N-[(1S)-1-(dodecylcarbamoyl)-4-guanidino-butyl]icosanamide hydrochloride]	significant enhancement	significant enhancement	significant enhancement	significant enhancement
CCCCCCCCCCCCCCCC(=O)N[C@@H](CCCNC(=N)N)C(=O)NCCCCCCCC.Cl [SZ181, N-[(1S)-4-guanidino-1-(octylcarbamoyl)butyl]hexadecanamide hydrochloride]	showed a tendency to increase	showed a tendency to increase	a tendency toward increase was found	a tendency toward increase was found
CCCCCCCCCCCCCCCCCC(=O)N[C@@H](CCCNC(=N)N)C(=O)NCCCCCCCC.Cl [SZ182, N-[(1S)-4-guanidino-1-(octylcarbamoyl)butyl]octadecanamide hydrochloride]	showed a tendency to increase	showed a tendency to increase	a tendency toward increase was found	a tendency toward increase was found
CCCCCCCCCCCCCCCCCCCC(=O)N[C@@H](CCCNC(=N)N)C(=O)NCCCCCCCC.Cl [SZ183, N-[(1S)-4-guanidino-1-(octylcarbamoyl)butyl]icosanamide hydrochloride]	significant enhancement	significant enhancement	significant enhancement	significant enhancement
CCCCCCCCCCCCCCCCCC(=O)N[C@@H](CCCCN)C(=O)NCCCCCCCC.Cl [SZ184, N-[(1S)-5-amino-1-(octylcarbamoyl)pentyl]octadecanamide hydrochloride]	showed a tendency to increase	showed a tendency to increase	a tendency toward increase was found	a tendency toward increase was found
CCCCCCCCCCCCCCCCCC(=O)N[C@@H](CCCCN)C(=O)NCCCCCCCCCCCC.Cl [SZ185, N-[(1S)-5-amino-1-(dodecylcarbamoyl)pentyl]octadecanamide hydrochloride]	significant enhancement	significant enhancement	significant enhancement	significant enhancement
CCCCCCCCCCCCCCCCCC(=O)N[C@@H](CCCCNC(=N)N)C(=O)NCCCCCC.Cl [SZ206, N-[(1S)-1-(hexylcarbamoyl)-5-guanidino-pentyl]octadecanamide hydrochloride]	–	significant enhancement	significant enhancement	significant enhancement

From patent US20180311342A1, “IMMUNOSTIMULATING AGENT” (AJINOMOTO CO., INC., priority 2017, published 2018)
